Experimental data reported in the NIST ThermoML archive (doi:10.1016/j.jct.2017.01.016).

Columns and labels:
[1] = 101 kPa, Liquid; for viscosity: Capillary tube (Ostwald / Ubbelohde) method; for speed of sound: Frequency=3 MHz, Linear variable-path acoustic interferometer
[2] = xn = mol fraction of the nth substance listed; details: 101 kPa, Liquid; for viscosity: Capillary tube (Ostwald / Ubbelohde) method; for speed of sound: Frequency=3 MHz, Linear variable-path acoustic interferometer

Cc1ccccc1C [1,2-dimethylbenzene]
[1]
Details	speed of sound [m/s]	viscosity [mPa·s]
293.15 K	1367.7	0.8066
298.15 K	1347.5	0.7576
303.15 K	1329.4	0.7132
308.15 K	1313.3	0.669
313.15 K	1298.5	0.6315
318.15 K	1285.2	0.5972

Cc1cc(C)cc(C)c1 [1,3,5-trimethylbenzene]
[1]
Details	speed of sound [m/s]	viscosity [mPa·s]
293.15 K	1360.4	0.7056
298.15 K	1339.8	0.6592
303.15 K	1319.6	0.6188
308.15 K	1300.2	0.5792
313.15 K	1280.4	0.5422
318.15 K	1263	0.5066

Cc1cccc(C)c1 [1,3-dimethylbenzene]
[1]
Details	speed of sound [m/s]	viscosity [mPa·s]
293.15 K	1346.7	0.6184
298.15 K	1323.6	0.584
303.15 K	1302.4	0.5517
308.15 K	1282.3	0.5229
313.15 K	1262.3	0.4938
318.15 K	1243	0.468

Cc1ccc(C)cc1 [1,4-dimethylbenzene]
[1]
Details	speed of sound [m/s]	viscosity [mPa·s]
293.15 K	1328.4	0.6505
298.15 K	1307.4	0.6115
303.15 K	1287.3	0.5766
308.15 K	1267.6	0.544
313.15 K	1248.3	0.5132
318.15 K	1229.8	0.4862

C1COCCO1 [1,4-dioxane]
[1]
Details	speed of sound [m/s]	viscosity [mPa·s]
293.15 K	1367.2	1.306
298.15 K	1344.7	1.195
303.15 K	1323.1	1.096
308.15 K	1301.2	1.014
313.15 K	1279.7	0.945
318.15 K	1258.6	0.884

C1COCCO1 [1,4-dioxane] + Cc1cc(C)cc(C)c1
[2], x1 = 1
Details	speed of sound [m/s]	viscosity [mPa·s]
293.15 K	1367.2	1.306
298.15 K	1344.7	1.195
303.15 K	1323.1	1.096
308.15 K	1301.2	1.014
313.15 K	1279.7	0.945
318.15 K	1258.6	0.884

C1COCCO1 [1,4-dioxane] + Cc1ccc(C)cc1
[2], x1 = 1
Details	speed of sound [m/s]	viscosity [mPa·s]
293.15 K	1367.2	1.306
298.15 K	1344.7	1.195
303.15 K	1323.1	1.096
308.15 K	1301.2	1.014
313.15 K	1279.7	0.945
318.15 K	1258.6	0.884

C1COCCO1 [1,4-dioxane] + Cc1cccc(C)c1
[2], x1 = 1
Details	speed of sound [m/s]	viscosity [mPa·s]
293.15 K	1367.2	1.306
298.15 K	1344.7	1.195
303.15 K	1323.1	1.096
308.15 K	1301.2	1.014
313.15 K	1279.7	0.945
318.15 K	1258.6	0.884

C1COCCO1 [1,4-dioxane] + Cc1ccccc1C
[2], x1 = 1
Details	speed of sound [m/s]	viscosity [mPa·s]
293.15 K	1367.2	1.306
298.15 K	1344.7	1.195
303.15 K	1323.1	1.096
308.15 K	1301.2	1.014
313.15 K	1279.7	0.945
318.15 K	1258.6	0.884

c1ccccc1 [benzene]
[1]
Details	speed of sound [m/s]	viscosity [mPa·s]
293.15 K	1324.4	0.647
298.15 K	1299.5	0.6048
303.15 K	1275.7	0.5672
308.15 K	1252.4	0.5322
313.15 K	1229.3	0.498
318.15 K	1207.8	0.4672

c1ccccc1 [benzene] + C1COCCO1
[2], x2 = 0
Details	speed of sound [m/s]	viscosity [mPa·s]
293.15 K	1324.4	0.647
298.15 K	1299.5	0.6048
303.15 K	1275.7	0.5672
308.15 K	1252.4	0.5322
313.15 K	1229.3	0.498
318.15 K	1207.8	0.4672

Cc1ccccc1 [toluene]
[1]
Details	speed of sound [m/s]	viscosity [mPa·s]
293.15 K	1328.6	0.5885
298.15 K	1307.3	0.5541
303.15 K	1285.5	0.5232
308.15 K	1264.2	0.495
313.15 K	1242.4	0.4662
318.15 K	1220.7	0.4384

Cc1ccccc1 [toluene] + C1COCCO1
[2], x2 = 0
Details	speed of sound [m/s]	viscosity [mPa·s]
293.15 K	1328.6	0.5885
298.15 K	1307.3	0.5541
303.15 K	1285.5	0.5232
308.15 K	1264.2	0.495
313.15 K	1242.4	0.4662
318.15 K	1220.7	0.4384
